Paper PMC8694192, “Synthesis and biological evaluation of new derivatives of thieno-thiazole and dihydrothiazolo-thiazole scaffolds integrated with a pyrazoline nucleus as anticancer and multi-targeting kinase inhibitors” (RSC Advances, 2021)
In brackets after ≈: the same amount, converted by molar mass. Like-named read-outs stand apart in the source and are kept apart here.

Tests used:
C. albicans ATCC 10231 [1] = assay: MIC, two-fold serial dilution; conditions: for MIC: Candida albicans, ATCC10231, read-out: MIC C. albicans ATCC 10231
A. fumigatus RCMB 02568 [2] = assay: Agar well diffusion, inhibition zone; type: cell-based; conditions: Aspergillus fumigatus
C. albicans ATCC 10231 [3] = assay: Agar well diffusion, inhibition zone; type: cell-based; conditions: Candida albicans
A. fumigatus RCMB 02568 [4] = assay: MIC, two-fold serial dilution; conditions: for MIC: Aspergillus fumigatus, RCMB02568, read-out: MIC A. fumigatus RCMB 02568
E. coli RCMB 010052 [5] = assay: Agar well diffusion, inhibition zone; type: cell-based; conditions: Escherichia coli, RCMB010052, read-out: Mean diameter of inhibition zone (mean ± SEM) E. coli RCMB 010052
S. typhi ATCC 14028 [6] = assay: MIC, two-fold serial dilution; type: cell-based; conditions: Salmonella enterica, read-out: MIC S. typhi ATCC 14028
HepG-2 cells = assay: In vitro cytotoxicity, MTT assay, HepG-2; conditions: Homo sapiens, HepG2, read-out: IC50 HepG-2
S. typhi ATCC 14028 [7] = assay: Agar well diffusion, inhibition zone; type: cell-based; conditions: Salmonella enterica, read-out: Mean diameter of inhibition zone (mean ± SEM) S. typhi ATCC 14028
S. pneumoniae 010010 [8] = assay: MIC, two-fold serial dilution; conditions: for MIC: Streptococcus pneumoniae, 010010, read-out: MIC S. pneumoniae 010010
E. coli RCMB 010052 [9] = assay: MIC, two-fold serial dilution; conditions: Escherichia coli, RCMB010052, read-out: MIC E. coli RCMB 010052
P. aeruginosa [10] = assay: Agar well diffusion, inhibition zone; type: cell-based; conditions: Pseudomonas aeruginosa, read-out: Mean diameter of inhibition zone (mean ± SEM) P. aeruginosa
E. faecalis [11] = assay: MIC, two-fold serial dilution; conditions: Enterococcus faecalis, read-out: MIC E. faecalis
S. aureus 25923 [12] = assay: MIC, two-fold serial dilution; conditions: Staphylococcus aureus, 25923, read-out: MIC S. aureus 25923
S. aureus 25923 [13] = assay: Agar well diffusion, inhibition zone; type: cell-based; conditions: Staphylococcus aureus, 25923, read-out: Mean diameter of inhibition zone (mean ± SEM) S. aureus 25923
S. pneumoniae 010010 [14] = assay: Agar well diffusion, inhibition zone; type: cell-based; conditions: Streptococcus pneumoniae, 010010, read-out: Mean diameter of inhibition zone (mean ± SEM) S. pneumoniae 010010
MCF-7 cells = assay: In vitro cytotoxicity, MTT assay, MCF-7; conditions: Homo sapiens, MCF7, read-out: IC50 MCF-7
E. faecalis [15] = assay: Agar well diffusion, inhibition zone; type: cell-based; conditions: Enterococcus faecalis, read-out: Mean diameter of inhibition zone (mean ± SEM) E. faecalis
P. aeruginosa [16] = assay: MIC, two-fold serial dilution; conditions: for MIC: Pseudomonas aeruginosa, read-out: MIC P. aeruginosa
[17] = RCMB02568, read-out: Mean diameter of inhibition zone (mean ± SEM) A. fumigatus RCMB 02568
[18] = ATCC10231, read-out: Mean diameter of inhibition zone (mean ± SEM) C. albicans ATCC 10231

In the case of C[C@@H]1[C@H](O)[C@@H](C)/C=C/C=C/C=C/C=C/C=C/C=C/C=C/[C@H](O[C@@H]2O[C@H](C)[C@@H](O)[C@H](N)[C@@H]2O)C[C@@H]2O[C@](O)(C[C@@H](O)C[C@@H](O)[C@H](O)CC[C@@H](O)C[C@@H](O)CC(=O)O[C@H]1C)C[C@H](O)[C@H]2C(=O)O [Amphotericin B, reference compound], the MIC (C. albicans ATCC 10231 [1]) is reported as 67.8 µM (≈ 62.7 µg/mL), the zone of inhibition at 500 µg/mL (A. fumigatus RCMB 02568 [2]; RCMB02568, well diffusion agar, 0.5 mg/mL, read-out: Mean diameter of inhibition zone (mean ± SEM) A. fumigatus RCMB 02568) is reported as 22 ± 0.72 mm and the zone of inhibition at 500 µg/mL (C. albicans ATCC 10231 [3]; ATCC10231, well diffusion agar, 0.5 mg/mL, read-out: Mean diameter of inhibition zone (mean ± SEM) C. albicans ATCC 10231) is reported as 20 ± 0.78 mm. It also gave an MIC (A. fumigatus RCMB 02568 [4]) of 39.1 µM (≈ 36.2 µg/mL).
For Cc1c(Nc2nc3c(C#N)c(N)sc3s2)c(=O)n(-c2ccccc2)n1C [Compound 3a, 5-Amino-2-((1,5-dimethyl-3-oxo-2-phenyl-2,3-dihydro-1H-pyrazol-4-yl)amino)thieno [3,2-d]thiazole-6-carbonitrile], the MIC (C. albicans ATCC 10231 [1]) was 186 µM (≈ 71.2 µg/mL), the “MIC C. albicans ATCC 10231” value (C. albicans ATCC 10231 [1]; two-fold serial dilution) was “completely lost” and the zone of inhibition at 500 µg/mL (E. coli RCMB 010052 [5]) was 25 ± 0.15 mm. The zone of inhibition at 500 µg/mL (A. fumigatus RCMB 02568 [2]; [17]) was 18 ± 0.25 mm, the MIC (S. typhi ATCC 14028 [6]) was 125 µM (≈ 47.9 µg/mL) and the melting point was > 300 °C. The IC50 (HepG-2 cells) was 25.72 ± 0.03 µM, the zone of inhibition at 500 µg/mL (C. albicans ATCC 10231 [3]; [18]) was 12 ± 0.51 mm and the zone of inhibition at 500 µg/mL (S. typhi ATCC 14028 [7]) was 17 ± 0.95 mm. For the same compound, the MIC (S. pneumoniae 010010 [8]) was 58.9 µM (≈ 22.5 µg/mL), the “fold more potency than streptomycin, S. pneumoniae” value (S. pneumoniae 010010 [8]; from MIC) was 1.1 folds and the MIC (E. coli RCMB 010052 [9]) was 19.4 µM (≈ 7.4 µg/mL). The zone of inhibition at 500 µg/mL (P. aeruginosa [10]) was 22 ± 0.44 mm, the MIC (E. faecalis [11]) was 185 µM (≈ 70.8 µg/mL) and the MIC (S. aureus 25923 [12]) was 16.9 µM (≈ 6.44 µg/mL). It also gave a zone of inhibition at 500 µg/mL (S. aureus 25923 [13]) of 28 ± 0.15 mm, a zone of inhibition at 500 µg/mL (S. pneumoniae 010010 [14]) of 21 ± 0.69 mm and an IC50 (MCF-7 cells) of 27.58 ± 0.01 µM. The MIC (A. fumigatus RCMB 02568 [4]) was 120 µM (≈ 45.9 µg/mL), the “MIC A. fumigatus RCMB 02568” value (A. fumigatus RCMB 02568 [4]; two-fold serial dilution) was “completely lost” and the zone of inhibition at 500 µg/mL (E. faecalis [15]) was 13 ± 0.76 mm. The MIC (P. aeruginosa [16]) was 40.5 µM (≈ 15.5 µg/mL) and the “fold more potency than streptomycin, P. aeruginosa” value (P. aeruginosa [16]; from MIC) was 1.6 folds.
COc1cccc2c1C(=O)c1c(O)c3c(c(O)c1C2=O)C[C@@](O)(C(=O)CO)C[C@@H]3O[C@H]1C[C@H](N)[C@H](O)[C@H](C)O1 [Doxorubicin, doxorubicin, reference compound] showed an IC50 (HepG-2 cells) of 5.66 ± 0.01 µM and an IC50 (MCF-7 cells) of 4.62 ± 0.01 µM.
For Cc1c(Nc2nc3c(s2)sc(=S)n3-c2ccccc2)c(=O)n(-c2ccccc2)n1C [Compound 5a, 1,5-Dimethyl-2-phenyl-4-((4-phenyl-5-thioxo-4,5-dihydrothiazolo[4,5-d]thiazol-2-yl)amino)-1H-pyrazol-3(2H)-one], the zone of inhibition at 500 µg/mL (A. fumigatus RCMB 02568 [2]; [17]) was 9 ± 0.53 mm, the MIC (S. typhi ATCC 14028 [6]) was 44.7 µM (≈ 20.2 µg/mL) and the melting point was 201 to 203 °C. It also gave an IC50 (HepG-2 cells) of 65.19 ± 0.02 µM, a zone of inhibition at 500 µg/mL (S. typhi ATCC 14028 [7]) of 23 ± 0.05 mm and an MIC (E. faecalis [11]) of 183 µM (≈ 82.8 µg/mL). The MIC (S. aureus 25923 [12]) was 63.6 µM (≈ 28.7 µg/mL), the zone of inhibition at 500 µg/mL (S. aureus 25923 [13]) was 21.2 ± 0.25 mm and the IC50 (MCF-7 cells) was 73.8 ± 0.04 µM. It also gave an MIC (A. fumigatus RCMB 02568 [4]) of 197 µM (≈ 89.2 µg/mL) and a zone of inhibition at 500 µg/mL (E. faecalis [15]) of 13 ± 0.43 mm.
Work on CCOC(=O)c1c(N)sc2sc(Nc3c(C)n(C)n(-c4ccccc4)c3=O)nc12 [Compound 3b, Ethyl 5-amino-2-((1,5-dimethyl-3-oxo-2-phenyl-2,3-dihydro-1H-pyrazol-4-yl)amino) thieno[3,2-d]thiazole-6-carboxylate] yielded an MIC (C. albicans ATCC 10231 [1]) of 189 µM (≈ 81.2 µg/mL), a zone of inhibition at 500 µg/mL (E. coli RCMB 010052 [5]) of 15 ± 0.71 mm and a zone of inhibition at 500 µg/mL (A. fumigatus RCMB 02568 [2]; [17]) of 21 ± 0.22 mm. For the same compound, the MIC (S. typhi ATCC 14028 [6]) was 45.6 µM (≈ 19.6 µg/mL), the melting point was 285 to 287 °C and the IC50 (HepG-2 cells) was 39.02 ± 0.02 µM. The zone of inhibition at 500 µg/mL (C. albicans ATCC 10231 [3]; [18]) was 11 ± 0.7 mm, the zone of inhibition at 500 µg/mL (S. typhi ATCC 14028 [7]) was 23 ± 0.79 mm and the MIC (S. pneumoniae 010010 [8]) was 179 µM (≈ 76.7 µg/mL). The MIC (E. coli RCMB 010052 [9]) was 119 µM (≈ 51.1 µg/mL), the zone of inhibition at 500 µg/mL (P. aeruginosa [10]) was 17 ± 0.41 mm and the MIC (E. faecalis [11]) was 67.4 µM (≈ 29 µg/mL). It also gave an MIC (S. aureus 25923 [12]) of 79 µM (≈ 33.9 µg/mL), a zone of inhibition at 500 µg/mL (S. aureus 25923 [13]) of 19 ± 0.68 mm and a zone of inhibition at 500 µg/mL (S. pneumoniae 010010 [14]) of 14 ± 0.84 mm. The IC50 (MCF-7 cells) was 36.77 ± 0.02 µM, the MIC (A. fumigatus RCMB 02568 [4]) was 62.1 µM (≈ 26.7 µg/mL) and the zone of inhibition at 500 µg/mL (E. faecalis [15]) was 20 ± 0.24 mm. The MIC (P. aeruginosa [16]) was 125 µM (≈ 53.6 µg/mL).
